Results as given in ChEMBL document CHEMBL3885881, “DrugMatrix”.

Organism: Rattus norvegicus
Test: DrugMatrix - Regimen: Daily Repeat
Assay type: toxicity, organism-based, Sprague-Dawley
Set-up: regimen Daily Repeat, gender Male, age 6-8 weeks
Conditions: in vivo, po, route oral GAVAGE, vehicle .5 % CMC; for ABSOLUTE BASOPHIL / ABSOLUTE EOSINOPHIL / ABSOLUTE LYMPHOCYTE / ABSOLUTE MONOCYTE / ABSOLUTE SEGMENTED NEUTROPHIL / BASOPHIL / EOSINOPHIL / ERYTHROCYTE COUNT / HEMATOCRIT / HEMOGLOBIN / LEUKOCYTE COUNT / LYMPHOCYTE / MEAN CORPUSCULAR HEMOGLOBIN / MEAN CORPUSCULAR HEMOGLOBIN CONCENTRATION / MEAN CORPUSCULAR VOLUME / MONOCYTE / NEUTROPHIL / NUCLEATED RED BLOOD CELLS / PLATELET COUNT: tissue Blood; for ALANINE AMINOTRANSFERASE / ALBUMIN / ALKALINE PHOSPHATASE / ASPARTATE AMINOTRANSFERASE / BLOOD UREA NITROGEN / CARBON DIOXIDE / CHLORIDE / CHOLESTEROL / CREATINE PHOSPHOKINASE / CREATININE / GLUCOSE / LACTATE DEHYDROGENASE / LIPASE / PHOSPHORUS / POTASSIUM / SODIUM / TOTAL BILIRUBIN / TOTAL PROTEIN / URIC ACID: tissue Plasma
[1] = 100 mg/kg, 120 h, dose level Low, time 5 day
[2] = 1500 mg/kg, 72 h, dose level High, time 3 day
[3] = 1500 mg/kg, 120 h, dose level High, time 5 day

O=C(O)CCc1nc(-c2ccccc2)c(-c2ccccc2)o1 [OXAPROZIN]
ABSOLUTE BASOPHIL [1]: 0 CELLS/uL
ABSOLUTE EOSINOPHIL [1]: 50.33 CELLS/uL
ABSOLUTE LYMPHOCYTE [1]: 11457 CELLS/uL
ABSOLUTE MONOCYTE [1]: 176 CELLS/uL
ABSOLUTE SEGMENTED NEUTROPHIL [1]: 1916.67 CELLS/uL
BASOPHIL [1]: 0%
EOSINOPHIL [1]: 0.33%
ERYTHROCYTE COUNT [1]: 5.42 x10E6/uL
HEMATOCRIT [1]: 34.23%
HEMOGLOBIN [1]: 13.93 G/DL
LEUKOCYTE COUNT [1]: 13.6 x10E3/uL
LYMPHOCYTE [1]: 84%
MEAN CORPUSCULAR HEMOGLOBIN [1]: 25.7 pg
MEAN CORPUSCULAR HEMOGLOBIN CONCENTRATION [1]: 40.67 G/DL
MEAN CORPUSCULAR VOLUME [1]: 63.1 fL
MONOCYTE [1]: 1.33%
NEUTROPHIL [1]: 14.33%
NUCLEATED RED BLOOD CELLS [1]: 0 /100WBC
PLATELET COUNT [1]: 1354 x10E3/uL
ALANINE AMINOTRANSFERASE [1]: 54.67 u/L
ALBUMIN [1]: 4.3 G/DL
ALKALINE PHOSPHATASE [1]: 418.33 u/L
ASPARTATE AMINOTRANSFERASE [1]: 81.67 u/L
BLOOD UREA NITROGEN [1]: 16 mg/dL
CARBON DIOXIDE [1]: 26.67 mmol/L
CHLORIDE [1]: 102.67 MEQ/L
CHOLESTEROL [1]: 57.67 mg/dL
CREATINE PHOSPHOKINASE [1]: 284.33 u/L
CREATININE [1]: 0.2 mg/dL
GLUCOSE [1]: 154 mg/dL
LACTATE DEHYDROGENASE [1]: 102.67 u/L
LIPASE [1]: 9.33 u/L
PHOSPHORUS [1]: 12.87 mg/dL
POTASSIUM [1]: 6.84 MEQ/L
SODIUM [1]: 145.4 MEQ/L
TOTAL BILIRUBIN [1]: 0.23 mg/dL
TOTAL PROTEIN [1]: 6.2 G/DL
URIC ACID [1]: 1.83 mg/dL
ABSOLUTE BASOPHIL [2]: 0 CELLS/uL
ABSOLUTE EOSINOPHIL [2]: 0 CELLS/uL
ABSOLUTE LYMPHOCYTE [2]: 11713.67 CELLS/uL
ABSOLUTE MONOCYTE [2]: 379.33 CELLS/uL
ABSOLUTE SEGMENTED NEUTROPHIL [2]: 2140.33 CELLS/uL
BASOPHIL [2]: 0%
EOSINOPHIL [2]: 0%
ERYTHROCYTE COUNT [2]: 5.87 x10E6/uL
HEMATOCRIT [2]: 37.03%
HEMOGLOBIN [2]: 14.47 G/DL
LEUKOCYTE COUNT [2]: 14.23 x10E3/uL
LYMPHOCYTE [2]: 82.33%
MEAN CORPUSCULAR HEMOGLOBIN [2]: 24.63 pg
MEAN CORPUSCULAR HEMOGLOBIN CONCENTRATION [2]: 39.07 G/DL
MEAN CORPUSCULAR VOLUME [2]: 63.17 fL
MONOCYTE [2]: 2.67%
NEUTROPHIL [2]: 15%
NUCLEATED RED BLOOD CELLS [2]: 0 /100WBC
PLATELET COUNT [2]: 1318.33 x10E3/uL
ALANINE AMINOTRANSFERASE [2]: 83 u/L
ALBUMIN [2]: 4.77 G/DL
ALKALINE PHOSPHATASE [2]: 581 u/L
ASPARTATE AMINOTRANSFERASE [2]: 86.67 u/L
BLOOD UREA NITROGEN [2]: 17.33 mg/dL
CARBON DIOXIDE [2]: 31.33 mmol/L
CHLORIDE [2]: 99.33 MEQ/L
CHOLESTEROL [2]: 70 mg/dL
CREATINE PHOSPHOKINASE [2]: 206 u/L
CREATININE [2]: 0.24 mg/dL
GLUCOSE [2]: 118 mg/dL
LACTATE DEHYDROGENASE [2]: 247.33 u/L
LIPASE [2]: 8.67 u/L
PHOSPHORUS [2]: 11.17 mg/dL
POTASSIUM [2]: 5.96 MEQ/L
SODIUM [2]: 145.9 MEQ/L
TOTAL BILIRUBIN [2]: 0.3 mg/dL
TOTAL PROTEIN [2]: 5.73 G/DL
URIC ACID [2]: 1.37 mg/dL
ABSOLUTE BASOPHIL [3]: 0 CELLS/uL
ABSOLUTE EOSINOPHIL [3]: 0 CELLS/uL
ABSOLUTE LYMPHOCYTE [3]: 19502.67 CELLS/uL
ABSOLUTE MONOCYTE [3]: 68 CELLS/uL
ABSOLUTE SEGMENTED NEUTROPHIL [3]: 3096 CELLS/uL
BASOPHIL [3]: 0%
EOSINOPHIL [3]: 0%
ERYTHROCYTE COUNT [3]: 5.71 x10E6/uL
HEMATOCRIT [3]: 35.9%
HEMOGLOBIN [3]: 14.6 G/DL
LEUKOCYTE COUNT [3]: 22.67 x10E3/uL
LYMPHOCYTE [3]: 86.33%
MEAN CORPUSCULAR HEMOGLOBIN [3]: 25.63 pg
MEAN CORPUSCULAR HEMOGLOBIN CONCENTRATION [3]: 40.7 G/DL
MEAN CORPUSCULAR VOLUME [3]: 63 fL
MONOCYTE [3]: 0.33%
NEUTROPHIL [3]: 13.33%
NUCLEATED RED BLOOD CELLS [3]: 0.33 /100WBC
PLATELET COUNT [3]: 1504 x10E3/uL
ALANINE AMINOTRANSFERASE [3]: 136.67 u/L
ALBUMIN [3]: 4.57 G/DL
ALKALINE PHOSPHATASE [3]: 427.67 u/L
ASPARTATE AMINOTRANSFERASE [3]: 109.67 u/L
BLOOD UREA NITROGEN [3]: 17.67 mg/dL
CARBON DIOXIDE [3]: 25.33 mmol/L
CHLORIDE [3]: 98.67 MEQ/L
CHOLESTEROL [3]: 83.67 mg/dL
CREATINE PHOSPHOKINASE [3]: 243 u/L
CREATININE [3]: 0.35 mg/dL
GLUCOSE [3]: 126 mg/dL
LACTATE DEHYDROGENASE [3]: 170.67 u/L
LIPASE [3]: 11.33 u/L
PHOSPHORUS [3]: 11.23 mg/dL
POTASSIUM [3]: 6.06 MEQ/L
SODIUM [3]: 143.63 MEQ/L
TOTAL BILIRUBIN [3]: 0.27 mg/dL
TOTAL PROTEIN [3]: 6 G/DL
URIC ACID [3]: 1.83 mg/dL
